Results from patent US8691187B2, “Imaging agents for detecting neurological disorders” (Eli Lilly and Company, priority 2009, dated 2014).
pIC50, pKd: −log10 of the molar value. Blank lines part the entries; values can stand above or below the molecule they belong to.

How the values were obtained:
Monoamine transp. = assay: CNS selectivity panel, monoamine transporter; assay type: binding
[1] = Mouse and rat brain microPET imaging (brain uptake); assay type: in vivo; conditions: rats and mice
Procedure: Mouse and Rat Brain microPET Imaging
Wild type mice and rats were injected intravenously with the candidate tracers. Mice (weight range 25-45 g) were injected with doses between 180 and 300 μCi in 200 uL of saline solution. Rats (weight range 300-400 g) were injected with doses between 300 and 500 μCi of tracer in 400 μL of saline solution. Anesthesia was induced and maintained with Isoflurane. CT and PET scans were performed with a MM INVEON scanner (SIEMENS™). Acquisition for CT images preceded PET scanning and lasted 5 minutes. Only several minutes after the beginning of the PET acquisition, the radioactive dose was injected into the animal through the tail vein. Images were generated as dynamic scans that typically lasted 30 minutes. The initial image analysis consisted of determining whether there was uptake of the tracer in the brain which would establish its ability to cross the blood-brain barrier. All measurements were performed at the time point of 5 minutes following the injection of the tracer. The degree of uptake in the brain was estimated relative to the uptake of the traces in the region of neck muscles. The ratio between the percentage of injected dose per gram in the brain and that of the muscular neck region was provided as an estimate of brain uptake.

tau/Ab = assay: selectivity (tau/Ab); assay type: binding
MAO-B = biological target: T1, MAO-B (Homo sapiens, UniProt P27338); assay: MAO inhibition, MAO-B; assay type: biochemical
T1 sequence (P27338 1-520): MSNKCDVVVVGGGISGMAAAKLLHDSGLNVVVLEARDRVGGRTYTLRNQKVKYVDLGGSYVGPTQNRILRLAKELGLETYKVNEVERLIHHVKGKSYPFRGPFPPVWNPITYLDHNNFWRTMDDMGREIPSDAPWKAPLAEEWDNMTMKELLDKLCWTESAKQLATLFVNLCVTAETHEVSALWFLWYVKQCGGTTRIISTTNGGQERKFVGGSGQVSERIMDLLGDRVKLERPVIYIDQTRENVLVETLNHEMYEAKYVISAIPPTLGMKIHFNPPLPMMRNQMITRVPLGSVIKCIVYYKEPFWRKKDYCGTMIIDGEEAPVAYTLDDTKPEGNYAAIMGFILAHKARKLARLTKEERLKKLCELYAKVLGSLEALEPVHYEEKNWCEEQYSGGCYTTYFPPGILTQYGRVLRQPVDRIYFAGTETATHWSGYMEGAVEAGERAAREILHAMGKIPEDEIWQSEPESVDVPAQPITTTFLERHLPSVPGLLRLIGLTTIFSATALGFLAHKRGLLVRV

AchE = AchE (Homo sapiens, UniProt P22303); assay: AchE activity; assay type: biochemical
Sequence of AchE (P22303 32-614): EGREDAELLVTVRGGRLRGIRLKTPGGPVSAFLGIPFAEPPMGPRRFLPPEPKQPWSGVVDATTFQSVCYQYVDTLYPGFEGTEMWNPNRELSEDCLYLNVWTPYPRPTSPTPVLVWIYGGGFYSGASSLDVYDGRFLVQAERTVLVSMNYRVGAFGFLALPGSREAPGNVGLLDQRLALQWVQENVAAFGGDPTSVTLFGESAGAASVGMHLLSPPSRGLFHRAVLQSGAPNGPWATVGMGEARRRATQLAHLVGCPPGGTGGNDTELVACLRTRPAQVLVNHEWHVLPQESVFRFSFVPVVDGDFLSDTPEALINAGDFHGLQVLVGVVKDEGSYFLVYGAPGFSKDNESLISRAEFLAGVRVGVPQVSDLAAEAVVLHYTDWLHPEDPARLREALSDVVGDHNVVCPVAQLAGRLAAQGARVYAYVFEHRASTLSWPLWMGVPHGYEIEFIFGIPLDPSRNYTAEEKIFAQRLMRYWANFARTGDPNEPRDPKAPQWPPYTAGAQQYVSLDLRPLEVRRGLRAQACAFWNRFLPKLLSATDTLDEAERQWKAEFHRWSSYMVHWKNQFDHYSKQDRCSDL

synthetic tau = synthetic tau (Homo sapiens, UniProt P10636); assay: Synthetic tau Kd (F-18 labeled and cold compound, filtration); assay type: binding
Sequence of synthetic tau (P10636 whole entry): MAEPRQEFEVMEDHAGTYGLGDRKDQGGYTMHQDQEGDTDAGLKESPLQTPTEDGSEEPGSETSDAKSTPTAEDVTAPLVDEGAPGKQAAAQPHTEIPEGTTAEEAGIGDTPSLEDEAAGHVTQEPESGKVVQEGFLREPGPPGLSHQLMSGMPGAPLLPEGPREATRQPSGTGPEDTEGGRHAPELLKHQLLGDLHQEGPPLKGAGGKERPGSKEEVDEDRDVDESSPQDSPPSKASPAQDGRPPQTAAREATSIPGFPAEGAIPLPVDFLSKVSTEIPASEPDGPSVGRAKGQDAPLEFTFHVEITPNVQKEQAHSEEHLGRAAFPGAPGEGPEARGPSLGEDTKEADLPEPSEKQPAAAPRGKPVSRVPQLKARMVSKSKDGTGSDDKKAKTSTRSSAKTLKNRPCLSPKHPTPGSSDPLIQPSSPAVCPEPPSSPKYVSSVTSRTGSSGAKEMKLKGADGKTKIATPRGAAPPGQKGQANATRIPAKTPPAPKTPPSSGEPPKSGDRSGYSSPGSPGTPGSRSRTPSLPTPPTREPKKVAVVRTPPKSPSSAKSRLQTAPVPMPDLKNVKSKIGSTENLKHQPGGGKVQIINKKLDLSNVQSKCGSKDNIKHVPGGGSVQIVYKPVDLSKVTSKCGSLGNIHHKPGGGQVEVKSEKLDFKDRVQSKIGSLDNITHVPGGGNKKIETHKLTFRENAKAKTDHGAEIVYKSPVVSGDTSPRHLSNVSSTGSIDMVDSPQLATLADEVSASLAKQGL
Procedure: (§1) Pick one brain section for each type and air-dry in hood. A solution of diluted F-18 labeled tracer (40 μCi/mL, 500 μL) which was obtained from the dilution of F-18 tracer with 1×PBS containing 2.5% EtOH and 2.5% DMSO was applied onto each slides to cover the whole tissue section. The resulting slides were incubated at room temperature for 90 minutes, drained, and placed onto a slide holder. The slides were then washed sequentially with 1×PBS for 1 min; 70% EtOH in 1×PBS for 2 min; 30% EtOH in 1×PBS for 2 min; and 1×PBS for 1 min. The slides were dried in the hood for 30 min, and then placed on Fuji imaging plates and exposed overnight. The imaging plates were then scanned and the signal was measured using Fuji software to produce an autoradiography image of the brain section. (PBS—Phosphate Buffer Saline) Protocol for Synthetic Beta-amyloid and Tau Kds
Various concentrations solution of F-18 labeled and its parent cold compound in 1×PBS containing 5% Ethanol and 5% DMSO (pH 7.4) were incubated with synthetic beta-Amyloid or synthetic tau at room temperature in glass tubes for 90 min. The reaction mixture in each tube was filtered under vacuum through a microfiber filter. Each tube was washed with a solution of 20% EtOH in PBS. The PBS wash solution was filtered under vacuum through the filters. Each filter was then washed with a solution of 20% EtOH in PBS and then placed into a gamma counter vial for CPM counting. The data obtained was plotted for Kd determination.

Bombesin BB3 = biological target: T2, Bombesin BB3 (Homo sapiens, UniProt P32247); assay: CNS selectivity panel, Bombesin BB3; assay type: binding; conditions: 10 uM (printed in T777 column)
T2 sequence (P32247 1-399): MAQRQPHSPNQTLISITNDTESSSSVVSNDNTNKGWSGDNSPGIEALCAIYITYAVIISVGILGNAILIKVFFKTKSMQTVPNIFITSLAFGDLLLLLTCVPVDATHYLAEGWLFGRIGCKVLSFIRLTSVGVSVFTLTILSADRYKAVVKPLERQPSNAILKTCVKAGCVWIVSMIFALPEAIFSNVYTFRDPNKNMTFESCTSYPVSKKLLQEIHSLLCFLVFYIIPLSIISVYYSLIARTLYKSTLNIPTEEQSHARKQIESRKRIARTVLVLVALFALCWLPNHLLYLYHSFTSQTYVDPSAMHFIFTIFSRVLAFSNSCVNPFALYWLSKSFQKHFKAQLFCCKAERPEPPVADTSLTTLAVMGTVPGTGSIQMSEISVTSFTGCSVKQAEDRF

human AD brain slices = assay: Human AD brain section autoradiography with F-18 tracer; assay type: binding; conditions: for GM Intensity (comp. with W372): compared with W372; for Tx/tau/amyloid correlation: tracer signal vs tau and amyloid load
Text: Furthermore, the selectivity can be evaluated in brains containing only Aβ plaques/no tau aggregates, Aβ plaques/and tau aggregates, and control brains. Unfortunately, there are no AD brains with only tau and no Aβ present. By testing radiolabeled tracers in these brain sections, one can more quantitative evaluate the relative binding strength (signal strength) and selectivity of various test compounds as they all contain the same radioactive tracer. For examples, if a test tracer binds only to tau, and not amyloid, it should show no signal in the Aβ plaques only brain sections. If a compound binds only to amyloid, it should show uptake in both types of brains. The difficulty of identifying and further quantifying selective compounds lies in the relative abundance of amyloid vs. tau, which is difficult to measure.
Human AD Brain Section Autoradiography
5 micron thick human AD brain slices were first examined using antibodies for Aβ and Tau to determine whether the tested human brain contains Aβ and Tau. Thus, three types of human brain slices were selected for autoradiography: Aβ+/Tau+; Aβ+/Tau−; and Aβ−/Tau−(control).
The experimental protocol is as follows:
as §1

human hepatocytes = assay: Stability in human hepatocytes; assay type: in vitro ADME
Norepinephrine transp. = Norepinephrine transp. (Homo sapiens, UniProt P23975); assay: CNS selectivity panel, norepinephrine transporter; assay type: binding
Sequence of Norepinephrine transp. (P23975 whole entry): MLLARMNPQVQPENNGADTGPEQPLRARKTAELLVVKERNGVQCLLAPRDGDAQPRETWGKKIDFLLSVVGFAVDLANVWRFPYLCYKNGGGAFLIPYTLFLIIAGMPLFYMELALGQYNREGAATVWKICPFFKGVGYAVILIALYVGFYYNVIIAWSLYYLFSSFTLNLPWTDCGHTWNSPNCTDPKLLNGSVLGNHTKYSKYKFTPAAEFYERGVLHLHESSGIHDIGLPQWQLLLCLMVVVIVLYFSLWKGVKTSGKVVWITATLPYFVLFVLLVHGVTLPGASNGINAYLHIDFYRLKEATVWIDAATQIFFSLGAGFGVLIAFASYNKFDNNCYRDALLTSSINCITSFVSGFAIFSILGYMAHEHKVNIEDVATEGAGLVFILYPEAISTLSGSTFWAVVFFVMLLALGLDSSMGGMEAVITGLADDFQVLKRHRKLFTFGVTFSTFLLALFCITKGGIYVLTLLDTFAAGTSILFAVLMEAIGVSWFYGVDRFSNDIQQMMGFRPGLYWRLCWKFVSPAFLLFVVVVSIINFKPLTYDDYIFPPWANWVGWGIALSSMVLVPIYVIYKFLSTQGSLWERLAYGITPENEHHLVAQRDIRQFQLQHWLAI

MAO-A = biological target: T3, MAO-A (Homo sapiens, UniProt P21397); assay: MAO inhibition, MAO-A; assay type: biochemical
T3 sequence (P21397 1-527): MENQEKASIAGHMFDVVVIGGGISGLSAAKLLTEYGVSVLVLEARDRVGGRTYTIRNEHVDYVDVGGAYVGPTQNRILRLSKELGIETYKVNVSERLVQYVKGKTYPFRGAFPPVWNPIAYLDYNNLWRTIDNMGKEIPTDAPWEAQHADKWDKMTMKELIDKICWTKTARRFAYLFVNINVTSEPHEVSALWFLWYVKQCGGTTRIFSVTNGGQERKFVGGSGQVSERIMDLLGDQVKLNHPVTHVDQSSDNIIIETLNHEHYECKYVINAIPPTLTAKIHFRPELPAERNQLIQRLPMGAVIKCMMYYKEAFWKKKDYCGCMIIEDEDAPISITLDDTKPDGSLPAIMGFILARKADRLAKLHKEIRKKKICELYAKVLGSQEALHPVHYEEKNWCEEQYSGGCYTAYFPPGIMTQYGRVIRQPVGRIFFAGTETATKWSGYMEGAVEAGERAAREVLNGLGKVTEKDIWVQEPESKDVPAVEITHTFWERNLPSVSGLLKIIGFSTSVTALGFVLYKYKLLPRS

AD brain sections = assay: Fluorescent compound staining on human AD brain sections (self-fluorescence, overall binding); conditions: figure legends; double labeling at 100 uM
Text: (§2) Native forms of tau (various isoforms, hyperphosphorylated) and amyloid aggregates are present in brain sections and therefore preferred for compound testing. Using the self-fluorescence of a test compound can give an indication of whether the compound binds to tau tangles/PHFs and/or amyloid plaques. This is further confirmed by immunostaining with Aβ and tau antibodies and overlaying the images. […] However, it is possible to “rate” the signal strength qualitatively and distinguish compounds that show binding to these aggregates.
(§3) In one of the embodiments of the present invention, the self-fluorescence of the compound of formula (I) is used to determine whether the compound binds to tau/amyloid in the brain sections and to give it a qualitative rating. The next step is to proceed to the autoradiography using different brain types for further evaluation and quantitation.
(§4) Tau fluorescent compounds staining on human brain sections (Double or triple labeled with tau and β-amyloid Immunohistochemistry (IHC))
(§5) Serial sections (6 μm thick) from OCT-embedded frozen blocks of front lobe were used for staining (OCT—optimal cutting temperature). After fixation and quenching of autofluorescence, tissue sections were incubated with in 100 μM of tau compound in 50% ethanol PBS for 60 min. Then sections were dipped briefly into water, rinsed in PBS, blocked with 5% normal horse serum in PBS for 1 hour at room temperature. After blocking, the tissue was incubated with tau or β-amyloid primary antibody at 4° C. overnight in a humid chamber. Next day, the sections were washed with PBS and then incubated with secondary antibody for 1 hour.

tau aggregates = assay: Fluorescent compound staining on human AD brain sections (tau IHC double labeling); assay type: binding; conditions: Table 2 acetylenes; 100 uM compound; qualitative rating + to ++++ or words
Text: as §2, §3, §4, §5

SMILES: FC1CCN(c2ccn3c(n2)nc2ccccc23)CC1 [Compound T777, 2-(4-fluoropiperidin-1-yl)benzo[4,5]imidazo[1,2-a]pyrimidine]
CNS selectivity panel: Monoamine transp. (Monoamine transp.; 10 uM): transp. (49%) | Brain uptake [1]: yes (4 rats, 4 mice) | selectivity (tau/Ab) (tau/Ab): 25× | inhibition at 1 µM (MAO-B): 0% | pIC50 (AchE): 5.52 | pKd (synthetic tau; Scheme 6 table): 7.72 | CNS selectivity panel: Bombesin BB3 (Bombesin BB3): Bombesin BB3 (49%) | GM Intensity (comp. with W372) (human AD brain slices): 9% | Tx/tau/amyloid correlation (human AD brain slices): yes | human hepatocytes (stability) (human hepatocytes): not stable (polar metabolites) | CNS selectivity panel: Norepinephrine transp. (Norepinephrine transp.; 10 uM): transp. (42%) | inhibition at 1 µM (MAO-A): 9%

pKd (synthetic tau; Scheme 5 table): 6.98
SMILES: COc1ccc2nc3cc(-c4ccc(F)nc4)ccn3c2c1 [Compound T663, 3-(6-Fluoropyridin-3-yl)-8-methoxybenzo[4,5]imidazo[1,2-a]pyridine]

SMILES: FCCC1CCN(c2ccn3c(n2)nc2ccccc23)CC1 [Compound T808, 2-(4-(2-fluoroethyl)piperidin-1-yl)benzo[4,5]imidazo[1,2-a]pyrimidine]
pIC50 (Monoamine transp.): 5.57 | Brain uptake [1]: yes (4 rats, 5 mice) | selectivity (tau/Ab) (tau/Ab): 27× | inhibition at 1 µM (MAO-B): 29% | pIC50 (AchE): 5.52 | pKd (synthetic tau; Scheme 6 table): 7.66 | CNS selectivity panel: Bombesin BB3 (Bombesin BB3): Bombesin BB3 (<20%) | GM Intensity (comp. with W372) (human AD brain slices): 18% | Tx/tau/amyloid correlation (human AD brain slices): yes | human hepatocytes (stability) (human hepatocytes): stable | pIC50 (Norepinephrine transp.): 6.09 | inhibition at 1 µM (MAO-A): 22%

SMILES: CN(C)c1ccc(C#Cc2nc3ccccc3n2CCF)cc1 [Compound T482, 4-((1-(2-Fluoroethyl)-1H-benzo[d]imidazol-2-yl)ethynyl)-N,N-dimethylaniline]
binding of fluorescent compound to AD brain sections confirmed by immunostaining with tau or Aβ antibodies (AD brain sections): total tau binding | Brain Section Staining: tau (tau aggregates): Mostly binds to Tau
